Data as given in patent publication US20030215516A1, “Process for production of crystals of a medicinally effective ingredient, crystals obtained thereby and pharmaceutical preparations containing them” (priority 2002, published 2003).
Where two headings read alike, the source gives them in different places. Marks after values point to notes of the source that are not given here.

Tests used:
[1] = Particle size distribution (Sympatec HELOS, dry dispersion); type: physicochemical
Source text: Particle Size Distribution:
Sympatec HELOS (H0445), dry dispersion system (RODOS), pressure 2 bar

[2] = Active ingredient release from 1 mg capsule / 1 mg tablet; type: physicochemical; settings: 0.3% SDS in water
Procedure: The release values were compared in a test medium, which comprises 0.3% SDS in water, with paddle stirring, 100 rpm.
Active Ingredient Release:
Active ingredient release measured in 1000 mL water with 0.3% sodium dodecyl sulfate, 100 rpm
Content Determination by HPLC with external calibration
(§1) Column: LiChrosphere 5μ RP-18 encapped, 150×3 mm
(§2) Eluent: acetonitrile/water=45/55

[3] = Text: Content Determination according to USP/Ph. Eur. for individual capsules after elution through HPLC with external calibration
as §1, §2

[4] = Example 1, spray-dried microcrystals
[5] = Example 2, primary particle size
[6] = Example 3, primary particle size
[7] = after drying on filter (from ethyl acetate suspension)
[8] = after spray-drying (from ethanol/water suspension)
[9] = suspension in ethanol/water (90/10) with 10% by weight microcrystalline J956, before drying
[10] = suspension in ethyl acetate with 14% by weight microcrystalline J956, before drying
[11] = 1 mg capsule, microcrystals X50 3.4/X100 25 μm
[12] = 1 mg capsule, microcrystals X50 5.2/X100 30 μm
[13] = 1 mg capsule, microcrystals X50 6.6/X100 43 μm
[14] = 1 mg capsule, microcrystals X50 8.7/X100 43 μm
[15] = 1 mg capsule, microcrystals X50 14.1/X100 87 μm
[16] = 1 mg tablet, microcrystals X50 10.6/X100 73 μm
[17] = Example 7, primary particle size
[18] = Example 6, primary particle size
[19] = Example 4, primary particle size

CCNC(=O)ON=Cc1ccc(C2CC3(C)C(CCC3(COC)OC)C3CCC4=CC(=O)CCC4=C23)cc1 (stereo not drawn) [J956, 11β-{4-[(ethylaminocarbonyl)oximinomethyl]phenyl}-17β-methoxy-17α-methoxymethyl-estra-4,9-dien-3-one]
Particle size X10 [1, 4]: 1.75 μm
Particle size X50 [1, 4]: 6.04 μm
Particle size X100 [1, 4]: 36 μm
Particle size X10 ([1]; Example 2, final): 4 μm
Particle size X50 ([1]; Example 2, final): 13 μm
Particle size X100 ([1]; Example 2, final): 73 μm
Particle size X10 [1, 5]: 3 μm
Particle size X50 [1, 5]: 9 μm
Particle size X100 [1, 5]: 61 μm
Particle size X10 ([1]; Example 3, final): 1.4 μm
Particle size X50 ([1]; Example 3, final): 5.4 μm
Particle size X100 ([1]; Example 3, final): 30 μm
Particle size X10 [1, 6]: 1.2 μm
Particle size X50 [1, 6]: 3.4 μm
Particle size X100 [1, 6]: 30 μm
average particle diameter (×50) ([1]; after dissolution and re-crystallization of 40 percent of the precipitate from 20 percent by weight ethyl acetate solution): 7.8 μm
Particle diameter X10 [1, 7]: 2.7 μm
Particle diameter X50 [1, 7]: 10.61 μm
Particle diameter X90 [1, 7]: 24 μm
Particle diameter X100 [1, 7]: 73 μm
Particle diameter X10 [1, 8]: 2.25 μm
Particle diameter X50 [1, 8]: 8.03 μm
Particle diameter X90 [1, 8]: 17 μm
Particle diameter X100 [1, 8]: 43 μm
increase of the maximum particle size (×100) ([1]; during dissolution and re-crystallization of 40 percent of the precipitate from 20 percent by weight ethyl acetate solution): scarcely measurable
average particle diameter (×50) ([1]; precipitated from a 20 percent by weight ethyl acetate solution, before dissolution and re-crystallization): 4.9 μm
Particle diameter X10 [1, 9]: 2.11 μm
Particle diameter X50 [1, 9]: 8.6 μm
Particle diameter X90 [1, 9]: 19 μm
Particle diameter X100 [1, 9]: 51 μm
Particle diameter X10 [1, 10]: 2.62*** μm
Particle diameter X50 [1, 10]: 10.4 μm
Particle diameter X90 [1, 10]: 24 μm
Particle diameter X100 [1, 10]: 73 μm
RELEASE in % ([2]; 1 mg capsule, microcrystals X50 3.4/X100 25 μm, 0 min, paddle 100 rpm): 0%
RELEASE in % ([2]; 1 mg capsule, microcrystals X50 3.4/X100 25 μm, 10 min, paddle 100 rpm): 90.7%
RELEASE in % ([2]; 1 mg capsule, microcrystals X50 3.4/X100 25 μm, 20 min, paddle 100 rpm): 97.3%
RELEASE in % ([2]; 1 mg capsule, microcrystals X50 3.4/X100 25 μm, 30 min, paddle 100 rpm): 98.1%
RELEASE in % ([2]; 1 mg capsule, microcrystals X50 3.4/X100 25 μm, 45 min, paddle 100 rpm): 99.9%
RELEASE in % ([2]; 1 mg capsule, microcrystals X50 5.2/X100 30 μm, 0 min, paddle 100 rpm): 0%
RELEASE in % ([2]; 1 mg capsule, microcrystals X50 5.2/X100 30 μm, 10 min, paddle 100 rpm): 89.8%
RELEASE in % ([2]; 1 mg capsule, microcrystals X50 5.2/X100 30 μm, 20 min, paddle 100 rpm): 93.5%
RELEASE in % ([2]; 1 mg capsule, microcrystals X50 5.2/X100 30 μm, 30 min, paddle 100 rpm): 93.4%
RELEASE in % ([2]; 1 mg capsule, microcrystals X50 5.2/X100 30 μm, 45 min, paddle 100 rpm): 95.6%
RELEASE in % ([2]; 1 mg capsule, microcrystals X50 6.6/X100 43 μm, 0 min, paddle 100 rpm): 0%
RELEASE in % ([2]; 1 mg capsule, microcrystals X50 6.6/X100 43 μm, 10 min, paddle 100 rpm): 93.2%
RELEASE in % ([2]; 1 mg capsule, microcrystals X50 6.6/X100 43 μm, 20 min, paddle 100 rpm): 95.9%
RELEASE in % ([2]; 1 mg capsule, microcrystals X50 6.6/X100 43 μm, 30 min, paddle 100 rpm): 96.7%
RELEASE in % ([2]; 1 mg capsule, microcrystals X50 6.6/X100 43 μm, 45 min, paddle 100 rpm): 96.8%
RELEASE in % ([2]; 1 mg capsule, microcrystals X50 8.7/X100 43 μm, 0 min, paddle 100 rpm): 0%
RELEASE in % ([2]; 1 mg capsule, microcrystals X50 8.7/X100 43 μm, 10 min, paddle 100 rpm): 93.5%
RELEASE in % ([2]; 1 mg capsule, microcrystals X50 8.7/X100 43 μm, 20 min, paddle 100 rpm): 96.7%
RELEASE in % ([2]; 1 mg capsule, microcrystals X50 8.7/X100 43 μm, 30 min, paddle 100 rpm): 98.5%
RELEASE in % ([2]; 1 mg capsule, microcrystals X50 8.7/X100 43 μm, 45 min, paddle 100 rpm): 99.7%
RELEASE in % ([2]; 1 mg capsule, microcrystals X50 14.1/X100 87 μm, 0 min, paddle 100 rpm): 0%
RELEASE in % ([2]; 1 mg capsule, microcrystals X50 14.1/X100 87 μm, 10 min, paddle 100 rpm): 90.2%
RELEASE in % ([2]; 1 mg capsule, microcrystals X50 14.1/X100 87 μm, 20 min, paddle 100 rpm): 95.3%
RELEASE in % ([2]; 1 mg capsule, microcrystals X50 14.1/X100 87 μm, 30 min, paddle 100 rpm): 96.0%
RELEASE in % ([2]; 1 mg capsule, microcrystals X50 14.1/X100 87 μm, 45 min, paddle 100 rpm): 96.3%
RELEASE in % ([2]; 1 mg tablet, microcrystals X50 10.6/X100 73 μm, 0 min, paddle, 100 rpm): 0%
RELEASE in % ([2]; 1 mg tablet, microcrystals X50 10.6/X100 73 μm, 10 min, paddle, 100 rpm): 73.7%
RELEASE in % ([2]; 1 mg tablet, microcrystals X50 10.6/X100 73 μm, 20 min, paddle, 100 rpm): 90.3%
RELEASE in % ([2]; 1 mg tablet, microcrystals X50 10.6/X100 73 μm, 30 min, paddle, 100 rpm): 91.85%
RELEASE in % ([2]; 1 mg tablet, microcrystals X50 10.6/X100 73 μm, 45 min, paddle, 100 rpm): 96.6%
CUT value spread: Confidence Interval % [3, 11]: 2.23%
CUT value spread: RSD, % [3, 11]: 3.56%
CUT value spread: Confidence Interval % [3, 12]: 1.20%
CUT value spread: RSD, % [3, 12]: 2.08%
CUT value spread: Confidence Interval % [3, 13]: 1.08%
CUT value spread: RSD, % [3, 13]: 1.57%
CUT value spread: Confidence Interval % [3, 14]: 0.93%
CUT value spread: RSD, % [3, 14]: 1.38%
CUT value spread: Confidence Interval % [3, 15]: 1.77%
CUT value spread: RSD, % [3, 15]: 2.50%
CUT value spread: Confidence Interval % [3, 16]: 1.16%
CUT value spread: RSD, % [3, 16]: 1.70%

CCNC(=O)ON=Cc1ccc(C2CC3(C)C(CCC3(COC)OC)C3CCC4=CC(=O)CCC4=C23)cc1 (stereo not drawn) [Micronizate, 11β-{4-[(ethylaminocarbonyl)oximinomethyl]phenyl}-17β-methoxy-17α-methoxymethyl-estra-4,9-dien-3-one, reference compound]
RELEASE in % ([2]; 1 mg capsule, micronized J956, 0 min, paddle 100 rpm): 0%
RELEASE in % ([2]; 1 mg capsule, micronized J956, 10 min, paddle 100 rpm): 92.1%
RELEASE in % ([2]; 1 mg capsule, micronized J956, 20 min, paddle 100 rpm): 94.3%
RELEASE in % ([2]; 1 mg capsule, micronized J956, 30 min, paddle 100 rpm): 94.6%
RELEASE in % ([2]; 1 mg capsule, micronized J956, 45 min, paddle 100 rpm): 94.9%
RELEASE in % ([2]; 1 mg tablet, micronized J956, 0 min, paddle, 100 rpm): 0%
RELEASE in % ([2]; 1 mg tablet, micronized J956, 10 min, paddle, 100 rpm): 92.1%
RELEASE in % ([2]; 1 mg tablet, micronized J956, 20 min, paddle, 100 rpm): 94.3%
RELEASE in % ([2]; 1 mg tablet, micronized J956, 30 min, paddle, 100 rpm): 94.6%
RELEASE in % ([2]; 1 mg tablet, micronized J956, 45 min, paddle, 100 rpm): 94.9%
CUT value spread: Confidence Interval % ([3]; 1 mg capsule, micronized J956): 1.72%
CUT value spread: RSD, % ([3]; 1 mg capsule, micronized J956): 2.56%
CUT value spread: Confidence Interval % ([3]; 1 mg tablet, micronized J956): 1.72%
CUT value spread: RSD, % ([3]; 1 mg tablet, micronized J956): 2.56%

C[C@]1(O)CC[C@H]2[C@@H]3CCC4=CC(=O)CC[C@@H]4[C@H]3CC[C@@]21C [methylnortestosterone, reference compound]
Particle size X10 [1, 17]: 1.32 μm
Particle size X50 [1, 17]: 3.96 μm
Particle size X99 [1, 17]: 14 μm
Particle size X100 [1, 17]: 18 μm
Particle size X10 ([1]; Example 7, spray-dried): 1.36 μm
Particle size X50 ([1]; Example 7, spray-dried): 3.94 μm
Particle size X99 ([1]; Example 7, spray-dried): 14 μm
Particle size X100 ([1]; Example 7, spray-dried): 18 μm

C#C[C@]1(OC(C)=O)CC[C@H]2[C@@H]3CCC4=CC(=O)CC[C@@H]4[C@H]3CC[C@@]21C [norethisterone acetate, reference compound]
Particle size X10 ([1]; Example 6, end): 8.5 μm
Particle size X50 ([1]; Example 6, end): 30.4 μm
Particle size X99 ([1]; Example 6, end): 87 μm
Particle size X100 ([1]; Example 6, end): 100 μm
Particle size X10 [1, 18]: 4 μm
Particle size X50 [1, 18]: 14 μm
Particle size X99 [1, 18]: 55 μm
Particle size X100 [1, 18]: 87 μm

CCCCCCCCCCC(=O)O[C@H]1CC[C@H]2[C@@H]3CCC4=CC(=O)CC[C@]4(C)[C@H]3CC[C@]12C [testosterone undecanoate, reference compound]
Particle size X10 ([1]; Example 4, 1st cycle): 17 μm
Particle size X50 ([1]; Example 4, 1st cycle): 41 μm
Particle size X99 ([1]; Example 4, 1st cycle): 100 μm
Particle size X100 ([1]; Example 4, 1st cycle): 120 μm
Particle size X10 [1, 19]: 6 μm
Particle size X50 [1, 19]: 21 μm
Particle size X99 [1, 19]: 100 μm
Particle size X100 [1, 19]: 120 μm
